The text below walks through data of article PMC5738440, “Identification and characterization of the structure–activity relationships involved in UGT1A1 inhibition by anthraquinone and dianthrone constituents of Polygonum multiflorum” (Scientific Reports, 2017).

The first series has as its target T1, UGT1A1 (Rattus norvegicus, UniProt Q64550).
T1 sequence (Q64550 30-535): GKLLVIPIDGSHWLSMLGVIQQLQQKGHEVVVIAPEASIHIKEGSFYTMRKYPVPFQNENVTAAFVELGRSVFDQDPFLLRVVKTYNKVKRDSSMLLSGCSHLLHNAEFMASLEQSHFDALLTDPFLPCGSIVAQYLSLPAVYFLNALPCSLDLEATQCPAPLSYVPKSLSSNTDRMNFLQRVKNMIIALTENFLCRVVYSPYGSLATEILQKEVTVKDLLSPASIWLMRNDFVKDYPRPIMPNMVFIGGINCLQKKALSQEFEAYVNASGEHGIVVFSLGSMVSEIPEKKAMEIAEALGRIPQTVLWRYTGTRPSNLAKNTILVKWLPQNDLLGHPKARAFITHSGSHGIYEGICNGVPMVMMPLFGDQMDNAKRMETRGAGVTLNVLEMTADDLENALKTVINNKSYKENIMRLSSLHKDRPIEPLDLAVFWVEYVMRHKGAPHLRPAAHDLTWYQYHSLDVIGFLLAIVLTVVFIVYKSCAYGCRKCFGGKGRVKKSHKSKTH
Assay: not given
The following applies: RLM system, competitive; cited from earlier work.
For `Cc1cc(O)c2c(c1)C(=O)c1cc(O)cc(O)c1C2=O` [Emodin], the Ki is 10 ± 0.611 µM.

A further series concerns the target T1, UGT1A1. The series can be described thus: UGT1A1 inhibition: bilirubin glucuronidation in rat liver microsomes (RLM), enzyme inhibition kinetics. As to conditions: Ki value, bilirubin substrate, extract concentration based on emodin content. On the procedure:
UGT1A1 activity assays were conducted at 37 °C in a shaking water bath[41]. Incubation mixtures (final volume, 0.2 mL) contained 0.5 mg/mL RLM, 0.1 M Tris-HCl (pH 7.4), 5 mM MgCl2, 5 mM D-saccharic acid 1,4-lactone, 3.5 mM UDPGA, and 50 mg/g protein alamethicin. Bilirubin (as a UGT1A1 substrate) and the test samples were dissolved in 100% dimethylsulfoxide (DMSO) immediately before being added to the incubation mixtures. […] The reaction was initiated by adding UDPGA after a 5-min pre-incubation at 37 °C; it was terminated after 10 min by adding 0.6 mL of ice-cold methanol: acetonitrile (1:2) containing 200 mM ascorbic acid. Proteins were precipitated by centrifugation at 13,000 × g for 30 min at 4 °C prior, and the supernatants were analyzed by UPLC.The assays were done in triplicates respectively.
Bilirubin glucuronidation was evaluated in the presence of various concentrations of bilirubin and potential inhibitors, as described above. Samples were analyzed in triplicate to determine their inhibition constants (Ki). For assays with inhibitors, the bilirubin concentration was 0.12 to 1.37 μM.
The inhibition kinetic type and parameters were determined by fitting the reaction velocities of different concentrations of test components (inhibitors) and bilirubin (substrate). Lineweaver–Burk and Dixon fitting equations were employed to determine the inhibition type, and the second plot (drawn using the slope of lines in the Lineweaver–Burk plot versus inhibitor concentrations) was used to calculate the Ki values. The results were analyzed using GraphPad Prism 5 software (GraphPad Inc., San Diego, CA, USA)[48]. […] The goodness-of-fit of the inhibition models was estimated using the F statistic, R^2 value, parameter standard error estimates, and 95% confidence intervals.
In general terms: Microsomes from liver hold many membrane-bound enzymes, among them those of drug oxidation.
`Cc1cc(O)c2c(c1)C(C1c3cc(C)cc(O)c3C(=O)c3c(O)cc(O)cc31)c1cc(O)cc(O)c1C2=O` (stereo not drawn) [Trans-emodin dianthrones] displayed a Ki of 1.08 µM.
The molecule `Cc1cc(O)c2c(c1)C(=O)c1cc(O)cc(O)c1C2=O` [Emodin] gave an inhibition constant (Ki) of 10 µM.
In the case of `COc1cc(O)c2c(c1)C(=O)c1cc(C)cc(O)c1C2=O` [Physcion], the affinity corresponds to a Ki of 94.7 µM.
Same read-out and setting: then `Cc1cc(O)c2c(c1)C(C1c3cc(C)cc(O)c3C(=O)c3c(OC4OC(CO)C(O)C(O)C4O)cc(O)cc31)c1cc(O)cc(O)c1C2=O` (stereo not drawn) [Polygonumnolide C4], with 77.4 µM; and `Cc1cc(O)c2c(c1)C(C1c3cc(C)cc(O)c3C(=O)c3c(OC4OC(CO)C(O)C(O)C4O)cc(O)cc31)c1cc(O)cc(O)c1C2=O` (stereo not drawn) [Polygonumnolide C3], with 12.9 µM; and `Cc1cc(O)c2c(c1)C(C1c3cc(C)cc(O)c3C(=O)c3c(OC4OC(CO)C(O)C(O)C4O)cc(O)cc31)c1cc(O)cc(O)c1C2=O` (stereo not drawn) [Polygonumnolide C2], with 4.29 µM.
On the same count and under the same terms, then `O=C(O)c1cc(O)c2c(c1)C(=O)c1cccc(O)c1C2=O` [Rhein], with 127 µM.
On the same count and under the same terms, as for `O=C1c2cc(O)cc(O)c2C(=O)c2c(O)cc(CO)cc21` [Citreorosein], the figure is 18.6 µM; as for `Cc1cc(O)c2c(c1)C(C1c3cc(C)cc(O)c3C(=O)c3c(O)cc(O)cc31)c1cc(O)cc(O)c1C2=O` (stereo not drawn) [Cis-emodin dianthrones], 0.863 µM.

Staying with this series, now noted: Lineweaver-Burk and Dixon plots.
In the case of `Cc1cc(O)c2c(c1)C(C1c3cc(C)cc(O)c3C(=O)c3c(O)cc(O)cc31)c1cc(O)cc(O)c1C2=O` (stereo not drawn) [Trans-emodin dianthrones], the Mode of inhibition result is listed as “Competitive inhibition”.
Still for that read-out and setting: then `Cc1cc(O)c2c(c1)C(=O)c1cc(O)cc(O)c1C2=O` [Emodin], with “Competitive inhibition”.
As to `COc1cc(O)c2c(c1)C(=O)c1cc(C)cc(O)c1C2=O` [Physcion], the Mode of inhibition entry is given as “Non-Competitive inhibition”.
On the same count and under the same terms, as for `Cc1cc(O)c2c(c1)C(C1c3cc(C)cc(O)c3C(=O)c3c(OC4OC(CO)C(O)C(O)C4O)cc(O)cc31)c1cc(O)cc(O)c1C2=O` (stereo not drawn) [Polygonumnolide C4], the entry is “Un-Competitive inhibition”.
Still for that read-out and setting: as for `Cc1cc(O)c2c(c1)C(C1c3cc(C)cc(O)c3C(=O)c3c(OC4OC(CO)C(O)C(O)C4O)cc(O)cc31)c1cc(O)cc(O)c1C2=O` (stereo not drawn) [Polygonumnolide C3], the entry is “Non-Competitive inhibition”; as for `Cc1cc(O)c2c(c1)C(C1c3cc(C)cc(O)c3C(=O)c3c(OC4OC(CO)C(O)C(O)C4O)cc(O)cc31)c1cc(O)cc(O)c1C2=O` (stereo not drawn) [Polygonumnolide C2], “Non-Competitive inhibition”.
The same measure, in the same setting: as for `O=C(O)c1cc(O)c2c(c1)C(=O)c1cccc(O)c1C2=O` [Rhein], the entry is “Mixed Type inhibition”.
Turning to `O=C1c2cc(O)cc(O)c2C(=O)c2c(O)cc(CO)cc21` [Citreorosein], the Mode of inhibition entry was “Mixed Type inhibition”.

The series is the same for the next values; noted with them: rat, pH 7.4, probe bilirubin (0.12-1.37 μM), Ki value, bilirubin substrate, extract concentration based on emodin content.
Regarding `Cc1cc(O)c2c(c1)C(C1c3cc(C)cc(O)c3C(=O)c3c(OC4OC(CO)C(O)C(O)C4O)cc(O)cc31)c1cc(O)cc(O)c1C2=O` (stereo not drawn) [Polygonumnolide C2], the affinity corresponds to a Ki at 10 min of 4.22 µM.

The target of a further series is rUGT1A1.
Assay: not given
As to conditions: rUGT1A1 system, competitive; cited from earlier work.
Take `Cc1cc(O)c2c(c1)C(=O)c1cc(O)cc(O)c1C2=O` [Emodin]: the inhibition constant Ki was 4.85 ± 0.528 µM.

For a further series, the system named is UGT1A1.
Assay: not given
The following applies: HLM system, competitive; cited from earlier work.
On to `Cc1cc(O)c2c(c1)C(=O)c1cc(O)cc(O)c1C2=O` [Emodin], for which the inhibitory constant (Ki) is 5.4 ± 0.956 µM.

As usually defined, the Ki is the equilibrium dissociation constant of an inhibitor or competing ligand from its target.
